Data from patent US10752624B2, “Kinase inhibitors” (Origenis GmbH, priority 2012, dated 2020).

The molecules below were run against LRRK2 (Homo sapiens, UniProt Q5S007) (assay: LRRK2-LRRK2 G2019S-Assay (LanthaScreen Eu Kinase Binding Assay)). Conditions: 5 nM LRRK2, 10 nM tracer 236, 2 nM EU-Anti-GST antibody, 1 h at RT; read-out: LRRK2 Activities: IC50.
Protocol: In the assay LanthaScreen™ Eu Kinase Binding Assay by Invitrogen Corporation (Carlsbad) the effect of invention of a compound on the phosphorylation is determined by measurement of fluorescence intensity emission ratio based on the binding and displacement of a proprietary, Alexa Fluor® 647-labeled, ATP-competitive kinase inhibitor scaffold (kinase tracer) to the kinase of interest. Binding of the tracer to the kinase is detected using a europium-labeled anti-tag antibody, which binds to the kinase of interest. Simultaneous binding of both the tracer and antibody to the kinase results in a high degree of FRET (fluorescence resonance energy transfer) from the europium (Eu) donor fluorophore to the Alexa Fluor® 647 acceptor fluorophore on the kinase tracer. Binding of an inhibitor to the kinase competes for binding with the tracer, resulting in a loss of FRET. The fluorescence intensity ratio is directly proportional to the amount of peptide phosphorylation.
To the wells of an 384 well small volume plate (Greiner, Frickenhausen) are added (i) the compound under test in 5% DMSO/distilled water (5 μl), (ii) 5 μl of the kinase antibody mixture resulting in a final concentration 5 nM LRRK2 or their mutants, 2 nM EU-Anti-GST antibody in 1× kinase buffer A. The reaction was started with addition of (iii) 5 μl resulting in a final concentration of 10 nM tracer 236. The assay plate was incubated at RT for 1 h and fluorescence intensity readings were collected using a TECAN M1000 at two wavelengths of λex 340/λem 615 nm and λex 340/λem 665 nm with a delay time of 100 μs and an integration time of 200 μs after 60 minutes. The emission ratio was calculated by division of the acceptor/tracer emission ([…]) by the antibody/donor emission ([…]). The inhibitor concentration was plotted versus the emission ratio to determine the IC50 using XLFit 5.0 (IDBS, Guildford) to fit to a sigmoidal dose response curve with a variable slope.

Chain of LRRK2 (Q5S007 970-2527 limits assumed): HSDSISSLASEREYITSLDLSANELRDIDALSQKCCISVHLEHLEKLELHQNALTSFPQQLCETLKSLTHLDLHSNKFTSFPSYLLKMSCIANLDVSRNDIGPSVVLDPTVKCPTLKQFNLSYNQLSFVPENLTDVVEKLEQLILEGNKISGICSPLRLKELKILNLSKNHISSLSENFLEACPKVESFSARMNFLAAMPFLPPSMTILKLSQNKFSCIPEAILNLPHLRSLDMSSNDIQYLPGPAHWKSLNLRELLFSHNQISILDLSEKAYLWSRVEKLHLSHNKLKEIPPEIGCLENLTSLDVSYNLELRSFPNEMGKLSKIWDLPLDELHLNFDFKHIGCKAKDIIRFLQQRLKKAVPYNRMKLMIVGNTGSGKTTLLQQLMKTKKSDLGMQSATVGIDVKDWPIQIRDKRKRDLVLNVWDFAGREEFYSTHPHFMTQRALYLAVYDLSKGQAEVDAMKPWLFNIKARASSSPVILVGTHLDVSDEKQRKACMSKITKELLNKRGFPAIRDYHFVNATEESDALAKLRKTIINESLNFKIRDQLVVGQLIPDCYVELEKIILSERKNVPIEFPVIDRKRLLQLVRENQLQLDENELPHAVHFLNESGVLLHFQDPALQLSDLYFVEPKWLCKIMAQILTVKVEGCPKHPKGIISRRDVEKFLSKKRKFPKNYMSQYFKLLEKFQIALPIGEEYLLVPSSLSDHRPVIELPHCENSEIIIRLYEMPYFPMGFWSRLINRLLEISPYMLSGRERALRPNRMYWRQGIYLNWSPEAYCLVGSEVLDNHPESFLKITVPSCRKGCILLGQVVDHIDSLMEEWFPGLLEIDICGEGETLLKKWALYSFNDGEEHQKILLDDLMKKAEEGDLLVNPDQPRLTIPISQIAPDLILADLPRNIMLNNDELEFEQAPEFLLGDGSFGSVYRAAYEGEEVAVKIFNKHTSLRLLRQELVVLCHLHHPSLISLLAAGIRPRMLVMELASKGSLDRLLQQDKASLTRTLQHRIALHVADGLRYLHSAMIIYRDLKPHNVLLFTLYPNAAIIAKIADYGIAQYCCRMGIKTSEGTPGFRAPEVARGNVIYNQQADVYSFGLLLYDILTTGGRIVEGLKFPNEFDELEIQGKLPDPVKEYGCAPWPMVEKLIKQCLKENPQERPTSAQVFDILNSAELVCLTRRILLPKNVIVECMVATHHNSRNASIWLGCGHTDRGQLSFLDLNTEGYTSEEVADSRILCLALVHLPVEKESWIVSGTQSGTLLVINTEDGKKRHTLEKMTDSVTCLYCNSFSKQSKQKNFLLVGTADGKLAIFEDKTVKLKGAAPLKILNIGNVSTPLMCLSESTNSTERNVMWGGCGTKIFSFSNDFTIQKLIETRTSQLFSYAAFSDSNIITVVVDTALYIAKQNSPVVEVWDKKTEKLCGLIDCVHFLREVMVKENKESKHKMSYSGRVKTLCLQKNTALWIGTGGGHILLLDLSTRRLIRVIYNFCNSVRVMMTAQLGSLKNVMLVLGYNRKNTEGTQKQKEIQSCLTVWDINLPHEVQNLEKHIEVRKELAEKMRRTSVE

| SMILES | IC50 [nM] |
| --- | --- |
| COc1ccc2nc(Nc3cnn(C(C)(C)C(N)=O)c3)c3n[nH]cc3c2c1 [Example 164, 2-(4-((8-methoxy-2H-pyrazolo[3,4-c]quinolin-4-yl)amino)-1H-pyrazol-1-yl)-2-methylpropanamide] | 100 to 1000 |
| CS(=O)(=O)c1ccc2c(c1)nc(Nc1ccc(C(=O)N3CCOCC3)c(F)c1)c1[nH]ncc12 [Example 174, (2-fluoro-4-((7-(methylsulfonyl)-3H-pyrazolo[3,4-c]quinolin-4-yl)amino)phenyl)(morpholino)methanone] | 100 to 1000 |
| COc1cc(C(=O)N2CCOCC2)ccc1Nc1nc2cc(S(C)(=O)=O)ccc2c2cn[nH]c12 [Example 194, (3-methoxy-4-((7-(methylsulfonyl)-3H-pyrazolo[3,4-c]quinolin-4-yl)amino)phenyl)(morpholino)methanone] | 100 to 1000 |
| Cn1cccc(Nc2nc3ccc(S(C)(=O)=O)cc3c3cn[nH]c23)c1=O [Example 202, 1-methyl-3-((8-(methylsulfonyl)-3H-pyrazolo[3,4-c]quinolin-4-yl)amino)pyridin-2(1H)-one] | 100 to 1000 |
| COc1nn(C2CCN(C(C)(C)C)CC2)cc1Nc1nc2cccc(OC)c2c2cn[nH]c12 [Example 225, N-(1-(1-(tert-butyl)piperidin-4-yl)-3-methoxy-1H-pyrazol-4-yl)-9-methoxy-3H-pyrazolo[3,4-c]quinolin-4-amine] | 10 to 100 |
| CS(=O)(=O)c1ccc2nc(Nc3cc(S(C)(=O)=O)sc3Cl)c3[nH]ncc3c2c1 [Example 230, N-(2-chloro-5-(methylsulfonyl)thiophen-3-yl)-8-(methylsulfonyl)-3H-pyrazolo[3,4-c]quinolin-4-amine] | 10 to 100 |
| COc1cccc2nc(Nc3c(C)nn(C(C)C)c3C)c3[nH]ncc3c12 [Example 234, N-(1-isopropyl-3,5-dimethyl-1H-pyrazol-4-yl)-9-methoxy-3H-pyrazolo[3,4-c]quinolin-4-amine] | 100 to 1000 |
| COCCCn1ncc(Nc2nc3cccc(OC)c3c3cn[nH]c23)c1Cl [Example 235, N-(5-chloro-1-(3-methoxypropyl)-1H-pyrazol-4-yl)-9-methoxy-3H-pyrazolo[3,4-c]quinolin-4-amine] | 10 to 100 |
| COCCCn1ncc(Nc2nc3ccc(S(C)(=O)=O)cc3c3cn[nH]c23)c1Cl [Example 237, N-(5-chloro-1-(3-methoxypropyl)-1H-pyrazol-4-yl)-8-(methylsulfonyl)-3H-pyrazolo[3,4-c]quinolin-4-amine] | 10 to 100 |
| Cn1nc(C2CC2)cc1Nc1nc2ccc(S(C)(=O)=O)cc2c2cn[nH]c12 [Example 239, N-(3-cyclopropyl-1-methyl-1H-pyrazol-5-yl)-8-(methylsulfonyl)-3H-pyrazolo[3,4-c]quinolin-4-amine] | 100 to 1000 |
| COc1cc(N2CCOC2=O)ccc1Nc1nc2ccc(S(C)(=O)=O)cc2c2cn[nH]c12 [Example 240, 3-(3-methoxy-4-((8-(methylsulfonyl)-3H-pyrazolo[3,4-c]quinolin-4-yl)amino)phenyl)oxazolidin-2-one] | 100 to 1000 |
| COCCn1ncc(Nc2nc3cccc(OC)c3c3cn[nH]c23)c1Cl [Example 241, N-(5-chloro-1-(2-methoxyethyl)-1H-pyrazol-4-yl)-9-methoxy-3H-pyrazolo[3,4-c]quinolin-4-amine] | 10 to 100 |
| COCCn1ncc(Nc2nc3ccc(S(C)(=O)=O)cc3c3cn[nH]c23)c1Cl [Example 242, N-(5-chloro-1-(2-methoxyethyl)-1H-pyrazol-4-yl)-8-(methylsulfonyl)-3H-pyrazolo[3,4-c]quinolin-4-amine] | 10 to 100 |
| COCCn1ncc(Nc2nc3cc(S(C)(=O)=O)ccc3c3cn[nH]c23)c1Cl [Example 243, N-(5-chloro-1-(2-methoxyethyl)-1H-pyrazol-4-yl)-7-(methylsulfonyl)-3H-pyrazolo[3,4-c]quinolin-4-amine] | 10 to 100 |
| Cc1c(Nc2nc3cc(S(C)(=O)=O)ccc3c3cn[nH]c23)cnn1C(C)C [Example 244, N-(1-isopropyl-5-methyl-1H-pyrazol-4-yl)-7-(methylsulfonyl)-3H-pyrazolo[3,4-c]quinolin-4-amine] | 10 to 100 |

Results, then the molecule that gave them:

| IC50 [nM] | SMILES |
| --- | --- |
| < 10 | COCCn1cc(Nc2nc3cccc(OC)c3c3c[nH]nc23)cn1 [Example 156, 9-methoxy-N-(1-(2-methoxyethyl)-1H-pyrazol-4-yl)-2H-pyrazolo[3,4-c]quinolin-4-amine] |
| < 10 | COc1cccc2nc(Nc3cnn(C4CCN(C(C)=O)CC4)c3)c3[nH]ncc3c12 [Example 157, 1-(4-(4-((9-methoxy-3H-pyrazolo[3,4-c]quinolin-4-yl)amino)-1H-pyrazol-1-yl)piperidin-1-yl)ethan-1-one] |
| < 10 | CS(=O)(=O)c1ccc2c(c1)nc(Nc1cnn(C3CCOCC3)c1)c1[nH]ncc12 [Example 160, 7-(methylsulfonyl)-N-(1-(tetrahydro-2H-pyran-4-yl)-1H-pyrazol-4-yl)-3H-pyrazolo[3,4-c]quinolin-4-amine] |
| 10 to 100 | CS(=O)(=O)c1ccc2c(c1)nc(Nc1cnn(C3CCOCC3)c1)c1[nH]ncc12 [Example 169, 7-(methylsulfonyl)-N-(1-(tetrahydro-2H-pyran-4-yl)-1H-pyrazol-4-yl)-3H-pyrazolo[3,4-c]quinolin-4-amine] |
| < 10 | COc1cccc2nc(Nc3cnn(C(C)(C)C)c3)c3[nH]ncc3c12 [Example 181, N-(1-(tert-butyl)-1H-pyrazol-4-yl)-9-methoxy-3H-pyrazolo[3,4-c]quinolin-4-amine] |
| < 10 | COc1cccc2nc(Nc3cnn(C4(C#N)CCCCC4)c3)c3[nH]ncc3c12 [Example 185, 1-(4-((9-methoxy-3H-pyrazolo[3,4-c]quinolin-4-yl)amino)-1H-pyrazol-1-yl)cyclohexanecarbonitrile] |
| 10 to 100 | COc1cc(C(=O)N2CCOCC2)ccc1Nc1nc2cccc(OC)c2c2cn[nH]c12 [Example 200, (3-methoxy-4-((9-methoxy-3H-pyrazolo[3,4-c]quinolin-4-yl)amino)phenyl)(morpholino)methanone] |
| 10 to 100 | COCCn1cc(Nc2nc3cccc(OC)c3c3cn[nH]c23)c(C)n1 [Example 205, 9-methoxy-N-(1-(2-methoxyethyl)-3-methyl-1H-pyrazol-4-yl)-3H-pyrazolo[3,4-c]quinolin-4-amine] |
| 10 to 100 | COc1cccc2nc(Nc3cn(C4CCOCC4)nc3C)c3[nH]ncc3c12 [Example 207, 9-methoxy-N-(3-methyl-1-(tetrahydro-2H-pyran-4-yl)-1H-pyrazol-4-yl)-3H-pyrazolo[3,4-c]quinolin-4-amine] |
| 10 to 100 | COCCn1cc(Nc2nc3ccc(S(C)(=O)=O)cc3c3cn[nH]c23)c(C)n1 [Example 209, N-(1-(2-methoxyethyl)-3-methyl-1H-pyrazol-4-yl)-8-(methylsulfonyl)-3H-pyrazolo[3,4-c]quinolin-4-amine] |
| 10 to 100 | COCCn1ncc(Nc2nc3ccc(S(C)(=O)=O)cc3c3cn[nH]c23)c1C [Example 210, N-(1-(2-methoxyethyl)-5-methyl-1H-pyrazol-4-yl)-8-(methylsulfonyl)-3H-pyrazolo[3,4-c]quinolin-4-amine] |
| < 10 | Cc1nn(C(C)C)cc1Nc1nc2ccc(S(C)(=O)=O)cc2c2cn[nH]c12 [Example 213, N-(1-isopropyl-3-methyl-1H-pyrazol-4-yl)-8-(methylsulfonyl)-3H-pyrazolo[3,4-c]quinolin-4-amine] |
| < 10 | Cc1c(Nc2nc3ccc(S(C)(=O)=O)cc3c3cn[nH]c23)cnn1C(C)C [Example 214, N-(1-isopropyl-5-methyl-1H-pyrazol-4-yl)-8-(methylsulfonyl)-3H-pyrazolo[3,4-c]quinolin-4-amine] |
| 10 to 100 | Cc1nn(C2CCOCC2)cc1Nc1nc2ccc(S(C)(=O)=O)cc2c2cn[nH]c12 [Example 216, N-(3-methyl-1-(tetrahydro-2H-pyran-4-yl)-1H-pyrazol-4-yl)-8-(methylsulfonyl)-3H-pyrazolo[3,4-c]quinolin-4-amine] |
| 10 to 100 | Cc1nn(C(C)C)cc1Nc1nc2ccc(S(C)(=O)=O)cc2c2cn[nH]c12 [Example 217, N-(1-isopropyl-3-methyl-1H-pyrazol-4-yl)-8-(methylsulfonyl)-3H-pyrazolo[3,4-c]quinolin-4-amine] |
| < 10 | COc1cccc2nc(Nc3cnn(C(C)C)c3C)c3[nH]ncc3c12 [Example 219, N-(1-isopropyl-5-methyl-1H-pyrazol-4-yl)-9-methoxy-3H-pyrazolo[3,4-c]quinolin-4-amine] |
| < 10 | COc1cccc2nc(Nc3cn(C(C)C)nc3C)c3[nH]ncc3c12 [Example 220, N-(1-isopropyl-3-methyl-1H-pyrazol-4-yl)-9-methoxy-3H-pyrazolo[3,4-c]quinolin-4-amine] |
| 10 to 100 | COc1cccc2nc(Nc3cn(C(C)C)nc3C)c3[nH]ncc3c12 [Example 222, N-(1-isopropyl-3-methyl-1H-pyrazol-4-yl)-9-methoxy-3H-pyrazolo[3,4-c]quinolin-4-amine] |
